Experimental data as given in patent US12215100B2, “Anticancer compounds” (Pharma Mar, S.A., priority 2018, dated 2025).

Experiments:
Assay type in all cases: cell-based, human
MDA-MB-231 = test: SRB colorimetric cytotoxicity assay, MDA-MB-231; conditions: Homo sapiens, breast adenocarcinoma
Excerpt: (§1) The aim of this assay is to evaluate the in vitro cytostatic (ability to delay or arrest tumor cell growth) or cytotoxic (ability to kill tumor cells) activity of the samples being tested.
(§2) A colorimetric assay, using sulforhodamine B (SRB) reaction has been adapted to provide a quantitative measurement of cell growth and viability (following the technique described by V. Vichai and K. Kirtikara (2006) Nature Protoc. 1, 1112-1116.)
(§3) This form of assay employs 96-well cell culture microplates. All the cell lines used in this study were obtained from the American Type Culture Collection (ATCC), unless otherwise indicated, and derive from different types of human cancer.
(§4) Cells were maintained in Dulbecco's Modified Eagle Medium (DMEM) (for A549, HT-29 and MDA-MB-231) or RPMI (for PSN-1) supplemented with 10% Fetal Bovine Serum (FBS), 2 mM L-glutamine, 100 U/mL penicillin and 100 U/mL streptomycin at 37° C., 5% CO2 and 98% humidity. For the experiments, cells were harvested from subconfluent cultures using trypsinization and resuspended in fresh medium before counting and plating.
(§5) Cells were seeded in 96 well microtiter plates, at 5×10^3 cells per well in aliquots of 150 μL, and allowed to attach to the plate surface for 18 hours (overnight) in drug free medium. After that, one control (untreated) plate of each cell line was fixed (as described below) and used for time zero reference value. […] After 72 hours treatment, the antitumor effect was measured by using the SRB methodology: Briefly, cells were washed twice with PBS, fixed for 15 min in 1% glutaraldehyde solution at room temperature, rinsed twice in PBS, and stained in 0.4% SRB solution for 30 min at room temperature. Cells were then rinsed several times with 1% acetic acid solution and air-dried at room temperature. SRB was then extracted in 10 mM trizma base solution and the absorbance measured in an automated spectrophotometric plate reader at 490 nm. Effects on cell growth and survival were estimated by applying the NCI algorithm (Boyd M R and Pauli K D. Drug Dev Res. 1995, 34, 91-104).
(§6) Using the mean±SD of triplicates, a dose-response curve was automatically generated using nonlinear regression analysis to a 4-parameter logistic curve. Three reference parameters were calculated (NCI algorithm) by automatic interpolation: GI50=compound concentration that produces 50% cell growth inhibition, as compared to control cultures; TGI=total cell growth inhibition (cytostatic effect), as compared to control cultures, and LC50=compound concentration that produces 50% net cell killing (cytotoxic effect).

A549 = test: SRB colorimetric cytotoxicity assay, A549; conditions: Homo sapiens, lung carcinoma (NSCLC)
Excerpt: as §1, §2, §3, §4, §5, §6

HT29 = test: SRB colorimetric cytotoxicity assay, HT29; conditions: Homo sapiens, colorectal adenocarcinoma
Excerpt: as §1, §2, §3, §4, §5, §6

PSN-1 = test: SRB colorimetric cytotoxicity assay, PSN-1; conditions: Homo sapiens, pancreatic adenocarcinoma
Excerpt: as §1, §2, §3, §4, §5, §6

[1] = MDA-MB-231, 72 h, 72 hours treatment
[2] = HT-29, 72 h, 72 hours treatment

Row | Structure (SMILES) | GI50 (MDA-MB-231; [1]) [nM] | GI50 (A549; A549, 72 h, 72 hours treatment) [nM] | GI50 (HT29; [2]) [nM] | GI50 (PSN-1; PSN1, 72 h, 72 hours treatment) [nM] | GI50 (MDA-MB-231; MDA-MB-231, 72 hours treatment) [nM] | GI50 (A549; A549, 72 hours treatment) [nM] | GI50 (HT29; HT-29, 72 hours treatment) [nM] | GI50 (PSN-1; PSN1, 72 hours treatment) [nM]
1 | C=Cc1cc([C@@H](CCC)NC(=O)[C@]2(C)CSC(C(C)=O)=N2)oc(=O)c1 [Compound 68] | 6620 | 11000 | 9100 | 4690 | – | – | – | –
2 | CCCCCCCOc1cc([C@@H](CCC)NC(=O)[C@]2(C)CSC(/C(C)=N\O)=N2)oc(=O)c1 [Compound 72a] | 103 | 110 | 183 | 125 | – | – | – | –
3 | CCC[C@@H](NC(=O)[C@]1(C)CSC(/C(C)=N/OCCCCO[Si](C)(C)C(C)(C)C)=N1)c1cc(OC)cc(=O)o1 [Compound 146] | – | – | – | – | 2820 | 1940 | 1020 | 2110
4 | CCC[C@@H](NC(=O)[C@]1(C)CSC(/C(C)=N/O[C@H]2O[C@H](CO)[C@@H](O)[C@H](O)[C@@H]2O)=N1)c1cc(OCC2CC2)cc(=O)o1 [Compound 181] | 6340 | > 17100 | 4970 | 6850 | – | – | – | –
5 | CCC[C@@H](NC(=O)[C@@H]1CSC(/C(C)=N/O)=N1)c1cc(OCC2CC2)cc(=O)o1 [Compound 178] | 49.1 | 41.7 | 76.1 | 36.8 | – | – | – | –
6 | CCC[C@@H](NC(=O)[C@]1(C)CSC(/C(C)=N/OCCCCO)=N1)c1cc(OCC2CC2)cc(=O)o1 [Compound 149] | 8.91 | 6.69 | 6.28 | 13.6 | – | – | – | –
7 | C=CCOc1cc([C@@H](CCC)NC(=O)[C@]2(C)CSC(/C(C)=N/OC(=O)CCCCCNC(=O)OC(C)(C)C)=N2)oc(=O)c1 [Compound 165] | 7.41 | 5.48 | 5.32 | 6.44 | – | – | – | –
8 | CCC[C@@H](NC(=O)[C@]1(C)CSC(/C(C)=N/OC)=N1)c1cc(OC)cc(=O)o1 [Compound 2] | 430 | 253 | 212 | 329 | – | – | – | –
9 | CCC[C@@H](NC(=O)[C@]1(C)CSC(/C(C)=N/O)=N1)c1cc(O)cc(=O)[nH]1 [Compound 82] | 1120 | 1640 | 491 | 355 | – | – | – | –
10 | CCC[C@@H](NC(=O)[C@]1(C)CSC(C(C)=O)=N1)c1cc(OC)cc(=O)o1 [Compound 42] | 4640 | 24600 | 8730 | 5190 | – | – | – | –
11 | COc1cc([C@@H](CC(C)C)NC(=O)[C@]2(C)CSC(/C(C)=N/O)=N2)oc(=O)c1 [Compound 69] | 1620 | 2200 | 1590 | 1520 | – | – | – | –
12 | CCC[C@@H](NC(=O)[C@]1(C)CSC(/C(C)=N/OC(=O)COCCOCCOC)=N1)c1cc(OC)cc(=O)o1 [Compound 95] | 44.3 | 20.3 | 40.6 | 33.2 | – | – | – | –
13 | CCC[C@@H](NC(=O)[C@]1(C)CSC(/C(C)=N/OCCCNC(=O)OC(C)(C)C)=N1)c1cc(OC)cc(=O)o1 [Compound 97] | 1150 | 631 | 594 | 835 | – | – | – | –
14 | C=CCO/N=C(\C)C1=N[C@](C)(C(=O)N[C@H](CCC)c2cc(OC)cc(=O)o2)CS1 [Compound 93] | 38 | 21.4 | 23.5 | 28.5 | – | – | – | –
15 | CCC[C@@H](NC(=O)[C@@]1(C)CSC(C(C)(OCC)OCC)=N1)c1cc(OC)cc(=O)o1 [Compound 129] | 3860 | 6130 | 3630 | 5450 | – | – | – | –
16 | C=CCOc1cc([C@@H](CCC)NC(=O)[C@]2(C)CSC(/C(C)=N/OCCOCCOCCOCC)=N2)oc(=O)c1 [Compound 144] | 162 | 72.2 | 65.2 | 125 | – | – | – | –
17 | CCCCCCCOc1cc([C@@H](CCC)NC(=O)[C@]2(C)CSC(C(C)(OCC)OCC)=N2)oc(=O)c1 [Compound 48] | 2290 | 3430 | 2290 | 2100 | – | – | – | –
18 | CCC[C@@H](NC(=O)[C@]1(C)CSC(C(C)=O)=N1)c1cc(OCC2CC2)cc(=O)o1 [Compound 65] | 1030 | 1890 | 1080 | 1250 | – | – | – | –
19 | C=CCOc1cc([C@@H](CCC)NC(=O)[C@]2(C)CSC(/C(C)=N\O)=N2)oc(=O)c1 [Compound 74a] | 9.82 | 8.1 | 7.61 | 12.5 | – | – | – | –
20 | CCC[C@@H](NC(=O)[C@]1(C)CSC(/C(C)=N/OCCOCCOCCOCC)=N1)c1cc(OC)cc(=O)o1 [Compound 96] | 2950 | 1770 | 1510 | 2220 | – | – | – | –
21 | CCC[C@@H](NC(=O)[C@]1(C)CSC(/C(C)=N/O)=N1)c1cc(OCCCN)cc(=O)o1 [Compound 89] | 5890 | 16500 | 8950 | 6360 | – | – | – | –
22 | C=CCOc1cc([C@@H](CCC)NC(=O)[C@]2(C)CSC(/C(C)=N/OC(=O)COCCOCCOC)=N2)oc(=O)c1 [Compound 164] | 7.22 | 6.52 | 4.58 | 6.52 | – | – | – | –
23 | CCC[C@@H](NC(=O)[C@]1(C)CSC(/C(C)=N/OCCC2COC(C)(C)O2)=N1)c1cc(OCC2CC2)cc(=O)o1 (some centres unmarked) [Compound 159] | 67.3 | 49.1 | 63.7 | 50.9 | – | – | – | –
24 | C=C(OCC)C1=N[C@](C)(C(=O)N[C@H](CCC)c2cc(OCC3CC3)cc(=O)o2)CS1 [Compound 185] | 228 | 161 | 207 | 140 | – | – | – | –
25 | CCCCOc1cc([C@@H](CCC)NC(=O)[C@]2(C)CSC(/C(C)=N/O)=N2)oc(=O)c1 [Compound 71] | 14.4 | 7.08 | 7.56 | 10.4 | – | – | – | –
26 | C=CCOc1cc([C@@H](CCC)NC(=O)[C@@]2(C)CSC(/C(C)=N/O)=N2)oc(=O)c1 [Compound 136] | 78.5 | 71.2 | 85.9 | 81 | – | – | – | –
27 | C=CCOc1cc([C@@H](CCC)NC(=O)[C@]2(C)CSC(/C(C)=N/O[Si](c3ccccc3)(c3ccccc3)C(C)(C)C)=N2)oc(=O)c1 [Compound 113] | – | – | – | – | 8.36 | 15.2 | 5.57 | 14.7
28 | COc1cc([C@@H](CCC(F)(F)F)NC(=O)[C@]2(C)CSC(/C(C)=N\O)=N2)oc(=O)c1 [Compound 140a] | 2270 | 2530 | 1520 | 2760 | – | – | – | –
29 | C=CCOc1cc([C@@H](CCC)NC(=O)[C@]2(C)CSC(/C(C)=N/OCCCN)=N2)oc(=O)c1 (stereo in doubt) [Compound 153] | 4.32 | 3.98 | 3.38 | 3.98 | – | – | – | –
